{
  "source": "patent US20260108546A1",
  "about": "(ELI LILLY AND COMPANY, priority 2024, published 2026)",
  "target": "T1, hGIP-R (Homo sapiens, UniProt P48546)",
  "T1 construct": "expressed in transfected cells; host or cells: HEK-293 clonal cell lines",
  "T1 sequence (P48546 22-466)": "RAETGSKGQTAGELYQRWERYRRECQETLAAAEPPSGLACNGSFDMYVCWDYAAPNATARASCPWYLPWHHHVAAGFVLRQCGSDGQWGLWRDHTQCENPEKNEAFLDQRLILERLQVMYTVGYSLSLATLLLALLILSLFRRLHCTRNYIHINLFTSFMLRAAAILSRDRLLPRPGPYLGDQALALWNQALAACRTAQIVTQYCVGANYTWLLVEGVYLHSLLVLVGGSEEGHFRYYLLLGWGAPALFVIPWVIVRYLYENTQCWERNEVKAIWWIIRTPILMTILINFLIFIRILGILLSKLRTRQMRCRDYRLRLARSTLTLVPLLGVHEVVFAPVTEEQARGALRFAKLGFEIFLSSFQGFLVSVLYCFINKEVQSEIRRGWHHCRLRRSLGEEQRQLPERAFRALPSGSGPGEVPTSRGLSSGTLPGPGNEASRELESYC",
  "test": "Functional hGIP-R Assay (cAMP formation, HTRF)",
  "assay_type": "cell-based",
  "conditions": "for Emax: cAMP efficacy, percent of maximal response to GIP(1-42)OH, 37° C., 0.1% bovine casein, arithmetic mean ± SEM; for EC50: cAMP potency, HEK-293 cells expressing hGIP-R, incubated at 37° C. in the presence of 0.1% bovine casein, geometric mean, read-out: Human GIP-R EC50, nM (SEM, n)",
  "procedure,_shortened": "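Relative EC50 and Emax came from four-parameter logistic fits of cAMP as a percent of the human GIP (1-42) OH maximal response. The cAMP was measured by competitive HTRF after 30 min, 37 °C compound exposure of hGIP-R HEK-293 clones in IBMX (250 μM)-containing medium.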",
  "note": "Where a name gives a salt, the structure may show the parent alone.",
  "data": [
    {"smiles": "CC(C)(Cn1cc(C(F)(F)F)cn1)NC(=O)[C@@H](Cc1cnc2ncccn12)NC(=O)[C@H]1C[C@@H]1c1ccc(-c2cnc3nn(C4CCC4)cc3c2)cc1", "note": "[Example 84, (1S,2S)-2-(4-(2-Cyclobutyl-2H-pyrazolo[3,4-b]pyridin-5-yl)phenyl)-N-((R)-3-(imidazo[1,2-a]pyrimidin-3-yl)-1-((2-methyl-1-(4-(trifluoromethyl)-1H-pyrazol-1-yl)propan-2-yl)amino)-1-oxopropan-2-yl)cyclopropane-1-carboxamide]", "values": [
      {"measurement": "Emax", "result": 89.7, "unit": "%"},
      {"measurement": "EC50", "result": 37.8, "unit": "nM"}
    ]},
    {"smiles": "Cn1cc(C[C@@H](NC(=O)[C@H]2C[C@@H]2c2ccc(-c3cnc4nc(C(F)(F)F)cn4c3)cc2)C(=O)NC(C)(C)Cn2nc(C(F)(F)F)cc2-n2ccnn2)cn1", "note": "[Example 23, (1S,2S)-N-((R)-1-((1-(5-(1H-1,2,3-Triazol-1-yl)-3-(trifluoromethyl)-1H-pyrazol-1-yl)-2-methylpropan-2-yl)amino)-3-(1-methyl-1H-pyrazol-4-yl)-1-oxopropan-2-yl)-2-(4-(2-(trifluoromethyl)imidazo [1,2-a]pyrimidin-6-yl)phenyl) cyclopropane-1-carboxamide]", "values": [
      {"measurement": "Emax", "result": "111 ± 11.6", "unit": "%"},
      {"measurement": "EC50", "result": 44.4, "unit": "nM"}
    ]},
    {"smiles": "Cn1cc2cc(-c3ccc([C@H]4C[C@@]45CCN([C@H](Cc4cnn(C(F)F)c4)C(=O)NC(C)(C)Cn4nc(C(F)(F)F)cc4-c4cn(C)c(=O)c6ccnn46)C5=O)cc3)cnc2n1", "note": "[Example 133, (R)-3-(1-(Difluoromethyl)-1H-pyrazol-4-yl)-N-(2-methyl-1-(5-(5-methyl-4-oxo-4,5-dihydropyrazolo[1,5-a]pyrazin-7-yl)-3-(trifluoromethyl)-1H-pyrazol-1-yl)propan-2-yl)-2-((1R,3R)-1-(4-(2-methyl-2H-pyrazolo[3,4-b]pyridin-5-yl)phenyl)-4-oxo-5-azaspiro[2.4]heptan-5-yl)propanamide]", "values": [
      {"measurement": "Emax", "result": "78.4 ± 3.18", "unit": "%"},
      {"measurement": "EC50", "result": 13.7, "unit": "nM"}
    ]},
    {"smiles": "Cn1cc(C[C@@H](NC(=O)C2CC2c2ccc(-c3cnc4nn(C)cc4c3)s2)C(=O)NC(C)(C)Cn2nc(C(F)(F)F)cc2-c2ccc(=O)n(C)c2)cn1", "note": "(single isomer, unassigned; isomer 2) [Example 60]", "values": [
      {"measurement": "Emax", "result": "89.8 ± 3.63", "unit": "%"},
      {"measurement": "EC50", "result": 189, "unit": "nM"}
    ]},
    {"smiles": "COCc1cn2cc(-c3ccc([C@H]4C[C@@]45CCN([C@H](Cc4cnn(C(F)F)c4)C(=O)NC(C)(C)Cn4nc(C(F)(F)F)cc4-c4ccc(C(C)(C)O)nc4)C5=O)c(C)n3)cnc2n1", "note": "[Example 168, (R)-3-(1-(difluoromethyl)-1H-pyrazol-4-yl)-N-(1-(5-(6-(2-hydroxypropan-2-yl)pyridin-3-yl)-3-(trifluoromethyl)-1H-pyrazol-1-yl)-2-methylpropan-2-yl)-2-((1R,3R)-1-(6-(2-(methoxymethyl)imidazo[1,2-a]pyrimidin-6-yl)-2-methylpyridin-3-yl)-4-oxo-5-azaspiro[2.4]heptan-5-yl)propanamide]", "values": [
      {"measurement": "Emax", "result": 110, "unit": "%"},
      {"measurement": "EC50", "result": 1.81, "unit": "nM"}
    ]},
    {"smiles": "Cn1cc2cc(-c3ccc([C@H]4C[C@@]45CCN([C@H](Cc4cnn(C(F)F)c4)C(=O)NC(C)(C)Cn4nc(C(F)(F)F)cc4-c4ccc(C#N)nc4)C5=O)cc3)cnc2n1", "note": "[Example 143, (R)-N-(1-(5-(6-Cyanopyridin-3-yl)-3-(trifluoro-methyl)-1H-pyrazol-1-yl)-2-methylpropan-2-yl)-3-(1-(difluoro-methyl)-1H-pyrazol-4-yl)-2-((1R,3R)-1-(4-(2-methyl-2H-pyrazolo[3,4-b]pyridin-5-yl)phenyl)-4-oxo-5-azaspiro[2.4]heptan-5-yl)propanamide]", "values": [
      {"measurement": "Emax", "result": "72.8 ± 3.32", "unit": "%"},
      {"measurement": "EC50", "result": 57.7, "unit": "nM"}
    ]},
    {"smiles": "Cc1nc(-c2cnc3nc(C4CC4)cn3c2)ccc1[C@H]1C[C@@]12CCN([C@H](Cc1cnn(C(F)F)c1)C(=O)NC(C)(C)Cn1nc(C(F)(F)F)cc1-c1ccc(C(C)(C)OP(=O)(O)O)nc1)C2=O", "note": "[Example 197, 2-(5-(1-(2-((R)-2-((1R,3R)-1-(6-(2-Cyclopropylimidazo[1,2-a]pyrimidin-6-yl)-2-methylpyridin-3-yl)-4-oxo-5-azaspiro[2.4]heptan-5-yl)-3-(1-(difluoromethyl)-1H-pyrazol-4-yl)propanamido)-2-methylpropyl)-3-(trifluoromethyl)-1H-pyrazol-5-yl)pyridin-2-yl)propan-2-yl dihydrogen phosphate, ammonia salt]", "values": [
      {"measurement": "Emax", "result": 119, "unit": "%"},
      {"measurement": "EC50", "result": 0.66, "unit": "nM"}
    ]},
    {"smiles": "CC(C)(Cn1cc(C(F)(F)F)cn1)NC(=O)[C@@H](Cc1cnc2ncccn12)NC(=O)[C@H]1C[C@@H]1c1ccc(-c2cnc3nn(CC4CCC4)cc3c2)cc1", "note": "[Example 77, (1S,2S)-2-(4-(2-(Cyclobutylmethyl)-2H-pyrazolo[3,4-b]pyridin-5-yl)phenyl)-N-((R)-3-(imidazo[1,2-a]pyrimidin-3-yl)-1-((2-methyl-1-(4-(trifluoromethyl)-1H-pyrazol-1-yl)propan-2-yl)amino)-1-oxopropan-2-yl)cyclopropane-1-carboxamide]", "values": [
      {"measurement": "Emax", "result": "103 ± 12", "unit": "%"},
      {"measurement": "EC50", "result": 88.2, "unit": "nM"}
    ]},
    {"smiles": "CC(C)(Cc1ccc(F)cn1)NC(=O)[C@@H](Cc1cnc2ncccn12)NC(=O)[C@H]1C[C@@H]1c1ccc(-c2cnc3nc(C(F)(F)F)cn3c2)cc1", "note": "[Example 85, (1S,2S)-N-((R)-1-((1-(5-Fluoropyridin-2-yl)-2-methylpropan-2-yl)amino)-3-(imidazo[1,2-a]pyrimidin-3-yl)-1-oxopropan-2-yl)-2-(4-(2-(trifluoromethyl)imidazo[1,2-a]pyrimidin-6-yl)phenyl)cyclopropane-1-carboxamide]", "values": [
      {"measurement": "Emax", "result": "87 ± 0.761", "unit": "%"},
      {"measurement": "EC50", "result": 41, "unit": "nM"}
    ]},
    {"smiles": "Cn1cc(C[C@@H](NC(=O)C2CC2c2ccc(-c3cnc4nn(C)cc4c3)s2)C(=O)NC(C)(C)Cn2nc(C(F)(F)F)cc2Br)cn1", "note": "(single isomer, unassigned; isomer 2) [Example 7]", "values": [
      {"measurement": "Emax", "result": "99.7 ± 0.756", "unit": "%"},
      {"measurement": "EC50", "result": 246, "unit": "nM"}
    ]},
    {"smiles": "COc1nnc(C)cc1-c1cc(C(F)(F)F)nn1CC(C)(C)NC(=O)[C@@H](Cc1cnn(C(F)F)c1)N1CC[C@@]2(C[C@@H]2c2ccc(-c3cnc4nn(C)cc4c3)nc2C)C1=O", "note": "[Example 180, (R)-3-(1-(difluoromethyl)-1H-pyrazol-4-yl)-N-(1-(5-(3-methoxy-6-methylpyridazin-4-yl)-3-(trifluoromethyl)-1H-pyrazol-1-yl)-2-methylpropan-2-yl)-2-((1R,3R)-1-(2-methyl-6-(2-methyl-2H-pyrazolo[3,4-b]pyridin-5-yl)pyridin-3-yl)-4-oxo-5-azaspiro[2.4]heptan-5-yl)propanamide]", "values": [
      {"measurement": "Emax", "result": "35.4 ± 1.96", "unit": "%"},
      {"measurement": "EC50", "result": 7.75, "unit": "nM"}
    ]},
    {"smiles": "Cc1c(-c2cc(C(F)(F)F)nn2CC(C)(C)NC(=O)[C@@H](Cc2cnn(C(F)F)c2)N2CC[C@@]3(C[C@@H]3c3ccc(-c4cnc5nn(C)cc5c4)cc3)C2=O)cn(C)c(=O)c1C#N", "note": "[Example 128, (R)-N-(1-(5-(5-Cyano-1,4-dimethyl-6-oxo-1,6-dihydropyridin-3-yl)-3-(trifluoromethyl)-1H-pyrazol-1-yl)-2-methylpropan-2-yl)-3-(1-(difluoromethyl)-1H-pyrazol-4-yl)-2-((1R,3R)-1-(4-(2-methyl-2H-pyrazolo[3,4-b]pyridin-5-yl)phenyl)-4-oxo-5-azaspiro[2.4]heptan-5-yl)propanamide]", "values": [
      {"measurement": "Emax", "result": "85.2 ± 1.24", "unit": "%"},
      {"measurement": "EC50", "result": 163, "unit": "nM"}
    ]},
    {"smiles": "CC(C)(Cn1cc(C(F)(F)F)cn1)NC(=O)[C@@H](Cc1cnc2ncccn12)NC(=O)[C@H]1C[C@@H]1c1ccc(-c2cnc3nccn3c2)cc1", "note": "[Example 47, (1S,2S)-N-((R)-3-(Imidazo[1,2-a]pyrimidin-3-yl)-1-((2-methyl-1-(4-(trifluoromethyl)-1H-pyrazol-1-yl)propan-2-yl)amino)-1-oxopropan-2-yl)-2-(4-(imidazo[1,2-a]pyrimidin-6-yl)phenyl) cyclopropane-1-carboxamide]", "values": [
      {"measurement": "Emax", "result": "84.6 ± 1.49", "unit": "%"},
      {"measurement": "EC50", "result": 41.5, "unit": "nM"}
    ]},
    {"smiles": "COCc1cn2cc(-c3ccc([C@H]4C[C@@]45CCN([C@H](Cc4cnn(C(F)F)c4)C(=O)NC(C)(C)Cn4nc(C(F)(F)F)cc4-c4ccnc(C(C)(C)O)c4)C5=O)c(C)n3)cnc2n1", "note": "[Example 160, (R)-3-(1-(difluoromethyl)-1H-pyrazol-4-yl)-N-(1-(5-(2-(2-hydroxypropan-2-yl)pyridin-4-yl)-3-(trifluoromethyl)-1H-pyrazol-1-yl)-2-methylpropan-2-yl)-2-((1R,3R)-1-(6-(2-(methoxymethyl)imidazo[1,2-a]pyrimidin-6-yl)-2-methylpyridin-3-yl)-4-oxo-5-azaspiro[2.4]heptan-5-yl)propanamide]", "values": [
      {"measurement": "Emax", "result": "119 ± 3.76", "unit": "%"},
      {"measurement": "EC50", "result": 1.24, "unit": "nM"}
    ]},
    {"smiles": "CCc1cn2cc(-c3ccc([C@H]4C[C@@H]4C(=O)N[C@H](Cc4cnc5ncccn45)C(=O)NC(C)(C)Cn4cc(C(F)(F)F)cn4)cc3)cnc2n1", "note": "[Example 82, (1S,2S)-2-(4-(2-Ethylimidazo[1,2-a]pyrimidin-6-yl)phenyl)-N-((R)-3-(imidazo[1,2-a]pyrimidin-3-yl)-1-((2-methyl-1-(4-(trifluoromethyl)-1H-pyrazol-1-yl)propan-2-yl)amino)-1-oxopropan-2-yl)cyclopropane-1-carboxamide]", "values": [
      {"measurement": "Emax", "result": "106 ± 2.58", "unit": "%"},
      {"measurement": "EC50", "result": 36.4, "unit": "nM"}
    ]},
    {"smiles": "Cn1cc(C[C@@H](NC(=O)C2CC2(C)c2ccc(-c3cnc4nn(C)cc4c3)cc2)C(=O)NC(C)(C)Cn2cc(C(F)(F)F)cn2)cn1", "note": "(single isomer, unassigned; isomer 4) [Example 11]", "values": [
      {"measurement": "Emax", "result": "117 ± 5.22", "unit": "%"},
      {"measurement": "EC50", "result": 55.2, "unit": "nM"}
    ]}
  ]
}
